These are literature values, as cited in patent US20160354364A1, “Pharmaceutical Compositions” (Alpharma Pharmaceuticals LLC, priority 2008, published 2016).

For this series the following is noted: in vivo.

`O=C1CC[C@@]2(O)[C@H]3Cc4ccc(O)c5c4[C@@]2(CCN3CC2CC2)[C@H]1O5` [Naltrexone, naltrexone]: the “time of absorption following oral administration” value was no more than 1 h.
